The values below are quoted from earlier work in US7517991B2, “N-sulfonylpiperidine cannabinoid receptor 1 antagonists” (Bristol-Myers Squibb Company, priority 2004, dated 2009).

Where two headings read alike, the source gives them in different places.

The conditions of data set [1]: human subjects, 16 week trial period, Phase IIb.
The conditions of data set [2]: chronic administration for two weeks.

For `Cc1c(C(=O)NN2CCCCC2)nn(-c2ccc(Cl)cc2Cl)c1-c1ccc(Cl)cc1` [SR-141716], the body weight result in data set [1] was “dose-dependently reduced body weight”.

`Cc1c(C(=O)NN2CCCCC2)nn(-c2ccc(Cl)cc2Cl)c1-c1ccc(I)cc1` [AM-251]: the body weight entry in data set [2] was “substantial body weight reduction”.
